Assays:
B-Raf V600E = B-Raf V600E (Homo sapiens, UniProt P15056, V600E); assay: Kinase activity assay, B-Raf V600E; type: biochemical; settings: read-out: activity toward kinase B-Raf V600E, IC50
Src = Src (Homo sapiens, UniProt P12931); assay: Kinase activity assay, Src
Fms = Fms (Homo sapiens, UniProt P07333); assay: Kinase activity assay, Fms
Btk = Btk (Homo sapiens, UniProt Q06187); assay: Kinase activity assay, Btk
Kdr = Kdr (Homo sapiens, UniProt P35968); assay: Kinase activity assay, Kdr
Kit = Kit (Homo sapiens, UniProt P10721); assay: Kinase activity assay, Kit
C-Raf = C-Raf (Homo sapiens, UniProt P04049); assay: Kinase activity assay, C-Raf
B-Raf = B-Raf (Homo sapiens, UniProt P15056); assay: Kinase activity assay, B-Raf; type: biochemical; settings: read-out: activity toward kinase B-Raf, IC50
A-Raf = molecular target: T1, A-Raf (Homo sapiens, UniProt P10398); assay: Kinase activity assay, A-Raf
T1 sequence (P10398 1-606): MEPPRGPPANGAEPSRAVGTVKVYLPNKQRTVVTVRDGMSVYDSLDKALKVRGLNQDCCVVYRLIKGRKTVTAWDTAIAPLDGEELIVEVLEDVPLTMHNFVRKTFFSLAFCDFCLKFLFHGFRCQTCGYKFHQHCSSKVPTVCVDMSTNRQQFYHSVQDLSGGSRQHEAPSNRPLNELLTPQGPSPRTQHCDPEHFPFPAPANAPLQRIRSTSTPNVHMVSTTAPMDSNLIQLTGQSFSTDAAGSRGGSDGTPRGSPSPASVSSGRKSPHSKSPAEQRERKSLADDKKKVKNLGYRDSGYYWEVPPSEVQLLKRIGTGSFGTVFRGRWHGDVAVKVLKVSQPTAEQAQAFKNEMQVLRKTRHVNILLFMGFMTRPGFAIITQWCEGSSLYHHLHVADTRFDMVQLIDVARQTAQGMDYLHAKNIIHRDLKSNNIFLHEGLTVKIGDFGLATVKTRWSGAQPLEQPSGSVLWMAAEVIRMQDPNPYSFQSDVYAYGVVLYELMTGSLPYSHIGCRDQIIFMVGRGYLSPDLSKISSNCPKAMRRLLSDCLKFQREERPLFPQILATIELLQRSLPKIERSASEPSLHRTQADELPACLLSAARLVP

MAP4K4 = MAP4K4 (Homo sapiens, UniProt O95819); assay: Kinase activity assay, MAP4K4

Measured: IC50

Chain of MAP4K4 (O95819 whole entry): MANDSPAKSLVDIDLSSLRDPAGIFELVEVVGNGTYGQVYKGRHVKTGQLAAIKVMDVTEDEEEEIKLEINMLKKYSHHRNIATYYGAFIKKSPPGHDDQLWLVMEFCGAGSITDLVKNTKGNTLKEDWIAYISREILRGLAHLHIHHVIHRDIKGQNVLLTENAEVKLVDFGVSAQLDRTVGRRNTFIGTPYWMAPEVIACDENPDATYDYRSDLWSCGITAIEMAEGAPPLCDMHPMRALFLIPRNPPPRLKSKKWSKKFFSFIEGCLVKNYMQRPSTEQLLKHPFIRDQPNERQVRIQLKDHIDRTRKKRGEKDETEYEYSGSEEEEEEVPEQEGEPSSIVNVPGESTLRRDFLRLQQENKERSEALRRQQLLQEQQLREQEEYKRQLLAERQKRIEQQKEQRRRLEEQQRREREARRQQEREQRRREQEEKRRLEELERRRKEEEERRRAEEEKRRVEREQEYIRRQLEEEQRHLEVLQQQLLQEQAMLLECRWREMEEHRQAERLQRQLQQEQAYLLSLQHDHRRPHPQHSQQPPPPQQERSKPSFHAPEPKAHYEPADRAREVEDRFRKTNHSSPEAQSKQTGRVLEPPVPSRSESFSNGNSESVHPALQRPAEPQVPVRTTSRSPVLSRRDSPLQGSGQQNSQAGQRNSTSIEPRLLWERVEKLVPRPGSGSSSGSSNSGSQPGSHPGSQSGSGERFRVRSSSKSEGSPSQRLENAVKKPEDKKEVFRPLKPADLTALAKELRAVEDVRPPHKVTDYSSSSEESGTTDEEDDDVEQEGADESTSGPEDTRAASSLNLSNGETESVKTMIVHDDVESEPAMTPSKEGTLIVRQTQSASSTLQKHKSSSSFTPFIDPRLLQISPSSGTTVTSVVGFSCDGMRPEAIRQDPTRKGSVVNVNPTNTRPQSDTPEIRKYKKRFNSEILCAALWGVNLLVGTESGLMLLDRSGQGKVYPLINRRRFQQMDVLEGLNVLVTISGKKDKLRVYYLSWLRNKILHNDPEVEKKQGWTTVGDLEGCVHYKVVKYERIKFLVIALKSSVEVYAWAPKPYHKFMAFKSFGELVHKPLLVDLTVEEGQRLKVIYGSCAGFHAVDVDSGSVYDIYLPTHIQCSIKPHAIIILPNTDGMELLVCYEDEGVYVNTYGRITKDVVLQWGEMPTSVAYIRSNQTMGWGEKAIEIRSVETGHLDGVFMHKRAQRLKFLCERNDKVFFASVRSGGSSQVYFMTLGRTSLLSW
Chain of Fms (P07333 20-972): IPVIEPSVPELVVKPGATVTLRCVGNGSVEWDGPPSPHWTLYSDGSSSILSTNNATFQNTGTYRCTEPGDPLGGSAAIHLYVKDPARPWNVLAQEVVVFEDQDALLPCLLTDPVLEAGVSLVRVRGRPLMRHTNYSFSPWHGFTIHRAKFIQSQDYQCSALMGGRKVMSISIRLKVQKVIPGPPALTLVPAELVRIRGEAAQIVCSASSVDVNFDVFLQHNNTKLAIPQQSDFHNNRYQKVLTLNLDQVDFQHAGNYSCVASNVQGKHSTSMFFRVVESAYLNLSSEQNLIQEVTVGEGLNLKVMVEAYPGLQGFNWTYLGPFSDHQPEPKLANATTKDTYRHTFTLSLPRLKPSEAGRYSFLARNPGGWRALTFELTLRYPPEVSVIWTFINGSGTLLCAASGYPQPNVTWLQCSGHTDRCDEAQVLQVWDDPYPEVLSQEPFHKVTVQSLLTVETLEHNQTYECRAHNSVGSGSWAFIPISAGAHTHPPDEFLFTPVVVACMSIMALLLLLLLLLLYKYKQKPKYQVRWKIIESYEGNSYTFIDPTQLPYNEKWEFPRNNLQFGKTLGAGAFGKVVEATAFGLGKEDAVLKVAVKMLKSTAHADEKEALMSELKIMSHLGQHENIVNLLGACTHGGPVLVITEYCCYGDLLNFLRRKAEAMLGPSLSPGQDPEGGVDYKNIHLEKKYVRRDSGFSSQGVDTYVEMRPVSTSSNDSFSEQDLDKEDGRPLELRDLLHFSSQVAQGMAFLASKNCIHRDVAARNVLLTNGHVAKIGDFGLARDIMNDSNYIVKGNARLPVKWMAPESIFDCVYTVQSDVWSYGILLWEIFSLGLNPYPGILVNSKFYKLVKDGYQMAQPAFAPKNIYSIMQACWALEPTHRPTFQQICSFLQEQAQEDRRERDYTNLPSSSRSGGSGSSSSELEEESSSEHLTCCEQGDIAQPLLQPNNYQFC
Chain of Src (P12931 whole entry): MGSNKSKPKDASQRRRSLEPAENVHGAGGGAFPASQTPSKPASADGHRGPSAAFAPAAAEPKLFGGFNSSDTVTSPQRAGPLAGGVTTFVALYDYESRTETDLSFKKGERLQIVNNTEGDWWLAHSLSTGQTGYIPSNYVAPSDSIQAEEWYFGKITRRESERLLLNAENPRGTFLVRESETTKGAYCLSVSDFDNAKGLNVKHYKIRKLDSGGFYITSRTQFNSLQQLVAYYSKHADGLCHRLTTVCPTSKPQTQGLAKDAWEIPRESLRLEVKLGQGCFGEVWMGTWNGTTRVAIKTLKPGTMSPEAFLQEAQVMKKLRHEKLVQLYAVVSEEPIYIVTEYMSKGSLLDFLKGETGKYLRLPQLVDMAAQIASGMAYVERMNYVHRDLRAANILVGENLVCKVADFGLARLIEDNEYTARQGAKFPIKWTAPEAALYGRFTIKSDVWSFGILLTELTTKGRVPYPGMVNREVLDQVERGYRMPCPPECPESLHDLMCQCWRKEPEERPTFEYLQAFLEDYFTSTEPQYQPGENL
Chain of B-Raf (P15056 whole entry): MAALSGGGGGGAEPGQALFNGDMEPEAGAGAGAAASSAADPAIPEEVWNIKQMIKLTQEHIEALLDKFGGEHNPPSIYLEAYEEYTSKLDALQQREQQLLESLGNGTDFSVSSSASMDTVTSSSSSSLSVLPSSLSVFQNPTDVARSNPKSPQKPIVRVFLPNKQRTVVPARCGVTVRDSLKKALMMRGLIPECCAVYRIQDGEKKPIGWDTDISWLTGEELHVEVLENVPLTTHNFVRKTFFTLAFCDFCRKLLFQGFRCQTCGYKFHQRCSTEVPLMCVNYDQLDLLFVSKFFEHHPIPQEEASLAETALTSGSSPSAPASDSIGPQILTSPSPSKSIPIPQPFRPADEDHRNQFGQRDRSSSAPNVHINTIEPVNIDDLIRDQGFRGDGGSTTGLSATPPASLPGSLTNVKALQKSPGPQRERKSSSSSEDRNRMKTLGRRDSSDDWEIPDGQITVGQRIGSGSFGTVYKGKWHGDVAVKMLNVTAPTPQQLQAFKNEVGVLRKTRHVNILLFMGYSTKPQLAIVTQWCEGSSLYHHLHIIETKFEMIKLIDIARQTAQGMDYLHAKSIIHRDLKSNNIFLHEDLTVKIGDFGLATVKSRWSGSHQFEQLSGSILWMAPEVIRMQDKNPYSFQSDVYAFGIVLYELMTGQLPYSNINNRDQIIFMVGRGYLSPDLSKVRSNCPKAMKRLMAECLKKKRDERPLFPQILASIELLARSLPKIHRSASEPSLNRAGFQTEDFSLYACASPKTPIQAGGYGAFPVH
Chain of Kit (P10721 26-976): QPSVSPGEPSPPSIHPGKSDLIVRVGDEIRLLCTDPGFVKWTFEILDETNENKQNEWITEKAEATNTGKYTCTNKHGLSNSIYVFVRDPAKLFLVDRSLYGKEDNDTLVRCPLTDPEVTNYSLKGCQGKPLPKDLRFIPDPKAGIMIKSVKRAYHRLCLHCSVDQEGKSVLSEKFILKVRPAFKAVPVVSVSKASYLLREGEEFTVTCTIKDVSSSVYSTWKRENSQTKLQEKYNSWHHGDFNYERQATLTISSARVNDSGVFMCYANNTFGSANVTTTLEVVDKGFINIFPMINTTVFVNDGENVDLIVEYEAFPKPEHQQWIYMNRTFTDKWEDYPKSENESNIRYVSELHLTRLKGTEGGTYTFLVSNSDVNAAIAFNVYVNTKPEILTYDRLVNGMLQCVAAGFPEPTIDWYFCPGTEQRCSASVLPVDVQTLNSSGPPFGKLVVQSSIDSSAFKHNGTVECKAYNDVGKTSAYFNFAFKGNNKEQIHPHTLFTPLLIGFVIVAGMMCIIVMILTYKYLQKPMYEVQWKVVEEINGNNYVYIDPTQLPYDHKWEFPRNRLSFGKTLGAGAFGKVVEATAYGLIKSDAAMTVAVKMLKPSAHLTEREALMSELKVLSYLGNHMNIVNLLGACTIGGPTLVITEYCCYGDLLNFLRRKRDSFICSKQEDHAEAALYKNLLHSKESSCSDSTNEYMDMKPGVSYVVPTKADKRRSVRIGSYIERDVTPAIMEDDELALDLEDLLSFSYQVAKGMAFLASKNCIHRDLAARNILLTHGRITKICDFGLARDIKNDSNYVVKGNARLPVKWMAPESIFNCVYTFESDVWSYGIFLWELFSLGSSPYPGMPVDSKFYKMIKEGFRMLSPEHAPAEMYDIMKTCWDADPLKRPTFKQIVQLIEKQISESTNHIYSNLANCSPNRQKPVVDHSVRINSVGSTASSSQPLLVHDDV
Chain of C-Raf (P04049 whole entry): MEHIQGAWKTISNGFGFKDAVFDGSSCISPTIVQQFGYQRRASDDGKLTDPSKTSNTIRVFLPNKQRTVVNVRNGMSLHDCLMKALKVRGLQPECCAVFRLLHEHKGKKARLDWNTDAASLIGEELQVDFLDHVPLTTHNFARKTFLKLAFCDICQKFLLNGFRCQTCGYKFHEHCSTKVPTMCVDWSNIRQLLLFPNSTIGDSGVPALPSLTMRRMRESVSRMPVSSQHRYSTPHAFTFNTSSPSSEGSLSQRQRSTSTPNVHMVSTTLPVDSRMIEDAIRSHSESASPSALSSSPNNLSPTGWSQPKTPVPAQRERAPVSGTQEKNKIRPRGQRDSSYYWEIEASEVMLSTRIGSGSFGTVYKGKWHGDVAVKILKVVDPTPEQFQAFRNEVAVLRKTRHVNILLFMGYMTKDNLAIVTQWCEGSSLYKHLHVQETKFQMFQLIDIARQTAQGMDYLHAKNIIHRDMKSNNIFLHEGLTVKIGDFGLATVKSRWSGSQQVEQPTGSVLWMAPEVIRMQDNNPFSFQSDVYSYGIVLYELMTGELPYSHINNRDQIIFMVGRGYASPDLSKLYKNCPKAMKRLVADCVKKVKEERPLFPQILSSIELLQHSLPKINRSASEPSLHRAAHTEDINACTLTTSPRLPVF

Cn1cc(-c2cnc3[nH]cc(C(=O)c4cc(NS(=O)(=O)c5cccc(C(F)(F)F)c5)ccc4F)c3c2)cn1 [P-2101, N-{4-Fluoro-3-[5-(1-methyl-1H-pyrazol-4-yl)-1H-pyrrolo[2,3-b]pyridine-3-carbonyl]-phenyl}-3-trifluoromethyl-benzenesulfonamide]
not listed: A-Raf | MAP4K4
≤ 10 µM: all other assays above

Cn1cc(-c2cnc3[nH]cc(C(=O)c4cc(NS(=O)(=O)c5cccc(OC(F)(F)F)c5)ccc4F)c3c2)cn1 [P-2102, N-{4-Fluoro-3-[5-(1-methyl-1H-pyrazol-4-yl)-1H-pyrrolo[2,3-b]pyridine-3-carbonyl]-phenyl}-3-trifluoromethoxy-benzenesulfonamide]
not listed: C-Raf | A-Raf | MAP4K4
≤ 10 µM: all other assays above

Cn1cc(-c2cnc3[nH]cc(C(=O)c4cc(NS(=O)(=O)c5cccc(Cl)c5)ccc4F)c3c2)cn1 [P-2103, 3-Chloro-N-{4-fluoro-3-[5-(1-methyl-1H-pyrazol-4-yl)-1H-pyrrolo[2,3-b]pyridine-3-carbonyl]-phenyl}-benzenesulfonamide]
not listed: C-Raf | A-Raf | MAP4K4
≤ 10 µM: all other assays above

CCCS(=O)(=O)Nc1ccc(F)c(C(=O)c2c[nH]c3ncc(-c4ccc(NS(C)(=O)=O)cc4)cc23)c1F [P-2165, Propane-1-sulfonic acid {2,4-difluoro-3-[5-(4-methanesulfonylamino-phenyl)-1H-pyrrolo[2,3-b]pyridine-3-carbonyl]-phenyl}-amide]
not listed: MAP4K4
≤ 10 µM: all other assays above

CCCS(=O)(=O)Nc1ccc(F)c(C(=O)c2c[nH]c3ncc(-c4ccc(OCCCN(C)C)nc4)cc23)c1F [P-2178, Propane-1-sulfonic acid (3-{5-[6-(3-dimethylamino-propoxy)-pyridin-3-yl]-1H-pyrrolo[2,3-b]pyridine-3-carbonyl}-2,4-difluoro-phenyl)-amide]
not listed: A-Raf | MAP4K4
≤ 10 µM: all other assays above

CCCS(=O)(=O)Nc1ccc(F)c(C(=O)c2c[nH]c3ncc(-c4ccc(OC)nc4OC)cc23)c1F [P-2184, Propane-1-sulfonic acid {3-[5-(2,6-dimethoxy-pyridin-3-yl)-1H-pyrrolo[2,3-b]pyridine-3-carbonyl]-2,4-difluoro-phenyl}-amide]
not listed: C-Raf | A-Raf | MAP4K4
≤ 10 µM: all other assays above

CCCS(=O)(=O)Nc1ccc(F)c(C(=O)c2c[nH]c3ncc(-c4cnn(Cc5ccccc5)c4)cc23)c1F [P-2190, Propane-1-sulfonic acid {3-[5-(1-benzyl-1H-pyrazol-4-yl)-1H-pyrrolo[2,3-b]pyridine-3-carbonyl]-2,4-difluoro-phenyl}-amide]
not listed: C-Raf | A-Raf | MAP4K4
≤ 10 µM: all other assays above

CCCS(=O)(=O)Nc1ccc(F)c(C(=O)c2c[nH]c3ncc(-c4ccc(S(N)(=O)=O)cc4)cc23)c1F [P-2194, 4-{3-[2,6-Difluoro-3-(propane-1-sulfonylamino)-benzoyl]-1H-pyrrolo[2,3-b]pyridin-5-yl}-benzenesulfonamide]
not listed: C-Raf | A-Raf | MAP4K4
≤ 10 µM: all other assays above

CCCS(=O)(=O)Nc1ccc(F)c(C(=O)c2c[nH]c3ncc(-c4ccc(C#CCN(CC)CC)nc4)cc23)c1F [P-2222, Propane-1-sulfonic acid (3-{5-[6-(3-diethylamino-prop-1-ynyl)-pyridin-3-yl]-1H-pyrrolo[2,3-b]pyridine-3-carbonyl}-2,4-difluoro-phenyl)-amide]
not listed: A-Raf
≤ 10 µM: all other assays above

CCCS(=O)(=O)Nc1ccc(F)c(C(=O)c2c[nH]c3ncc(-c4ccc(N(C)C)nc4)cc23)c1F [P-2229, Propane-1-sulfonic acid {3-[5-(6-dimethylamino-pyridin-3-yl)-1H-pyrrolo[2,3-b]pyridine-3-carbonyl]-2,4-difluoro-phenyl}-amide]
not listed: Fms | A-Raf
≤ 10 µM: all other assays above

CCCS(=O)(=O)Nc1ccc(F)c(C(=O)c2c[nH]c3ncc(-c4ccc(OCCCN5CCCC5)nc4)cc23)c1F [P-2235, Propane-1-sulfonic acid (2,4-difluoro-3-{5-[6-(3-pyrrolidin-1-yl-propoxy)-pyridin-3-yl]-1H-pyrrolo[2,3-b]pyridine-3-carbonyl}-phenyl)-amide]
≤ 10 µM: all assays above

CCS(=O)(=O)Nc1ccc(F)c(C(=O)c2c[nH]c3ncc(-c4ccc(F)cc4)cc23)c1F [P-2270, Ethanesulfonic acid {2,4-difluoro-3-[5-(4-fluoro-phenyl)-1H-pyrrolo[2,3-b]pyridine-3-carbonyl]-phenyl}-amide]
not listed: C-Raf | A-Raf
≤ 10 µM: all other assays above

O=C(c1c(F)ccc(NS(=O)(=O)C2CC2)c1F)c1c[nH]c2ncc(-c3ccc(Cl)cc3)cc12 [P-2350, Cyclopropanesulfonic acid {3-[5-(4-chloro-phenyl)-1H-pyrrolo[2,3-b]pyridine-3-carbonyl]-2,4-difluoro-phenyl}-amide]
≤ 10 µM: Src | Fms | Btk | Kdr | Kit | C-Raf

O=C(c1c(F)ccc(NS(=O)(=O)C2CC2)c1F)c1c[nH]c2ncc(-c3ccc(F)cc3)cc12 [P-2351, Cyclopropanesulfonic acid {2,4-difluoro-3-[5-(4-fluoro-phenyl)-1H-pyrrolo[2,3-b]pyridine-3-carbonyl]-phenyl}-amide]
not listed: C-Raf | A-Raf | MAP4K4
≤ 10 µM: all other assays above

N#Cc1cnc2[nH]cc(C(=O)c3cccc(NS(=O)(=O)N4CCCC4)c3F)c2c1 [P-2420, Pyrrolidine-1-sulfonic acid [3-(5-cyano-1H-pyrrolo[2,3-b]pyridine-3-carbonyl)-2-fluoro-phenyl]-amide]
≤ 10 µM: B-Raf V600E | A-Raf | Btk | C-Raf | B-Raf

CCCS(=O)(=O)Nc1ccc(F)c(C(=O)c2c[nH]c3ncc(-c4cnn(C)c4)cc23)c1 [P-2431, Propane-1-sulfonic acid {4-fluoro-3-[5-(1-methyl-1H-pyrazol-4-yl)-1H-pyrrolo[2,3-b]pyridine-3-carbonyl]-phenyl}-amide]
not listed: A-Raf | MAP4K4
≤ 10 µM: all other assays above

O=C(c1cccc(NS(=O)(=O)C2CCCCC2)c1)c1c[nH]c2ncc(F)cc12 [P-2462, Cyclohexanesulfonic acid [3-(5-fluoro-1H-pyrrolo[2,3-b]pyridine-3-carbonyl)-phenyl]-amide]
≤ 10 µM: Btk | MAP4K4

Source: patent publication US20120122860A1, “SOLID FORMS OF SULFONAMIDES AND AMINO ACIDS” (Plexxikon, Inc., priority 2009, published 2012)
